Measured values from the NIST ThermoML archive (doi:10.1021/je7003963).
± gives the expanded uncertainty stated by the source.

Assay: mn = molality of the nth substance listed, in mol/kg
Conditions: 293.15 K; for speed of sound / mass density: 101 kPa, Liquid; for speed of sound: Sing-around technique in a fixed-path interferometer; for mass density: Vibrating tube method

Cl.Cl.OCCN1CCN(CCCN2c3ccccc3Sc3ccc(C(F)(F)F)cc32)CC1 [fluphenazine dihydrochloride] + O
Conditions	mass density [kg/m3]	speed of sound [m/s]	surface tension liquid-gas [mN/m]
m1 = 0.001	–	–	59.1 ± 2
m1 = 0.002	–	–	57.9 ± 2
m1 = 0.003	–	–	54.5 ± 1.9
m1 = 0.004	–	–	51.1 ± 1.8
m1 = 0.005	–	–	49 ± 1.7
m1 = 0.006	–	–	49.9 ± 1.7
m1 = 0.00605	999.199 ± 0.28	1484.1 ± 1.2	–
m1 = 0.007	–	–	47.7 ± 1.6
m1 = 0.00716	999.381 ± 0.29	1484.6 ± 1.2	–
m1 = 0.00794	999.509 ± 0.29	1484.8 ± 1.2	–
m1 = 0.008	–	–	45.9 ± 1.6
m1 = 0.00898	999.679 ± 0.29	1485.1 ± 1.2	–
m1 = 0.01001	999.848 ± 0.29	1485.3 ± 1.2	–
m1 = 0.01999	1001.44 ± 0.29	1487.5 ± 1.3	–
m1 = 0.025	–	–	44.3 ± 1.5
m1 = 0.02935	1002.91 ± 0.3	1489.3 ± 1.3	–
m1 = 0.04	1004.55 ± 0.31	1491.5 ± 1.3	44.6 ± 1.6
m1 = 0.0506	1006.17 ± 0.32	1492.8 ± 1.3	–
m1 = 0.05999	1007.59 ± 0.32	1494.4 ± 1.3	–
m1 = 0.075	–	–	44 ± 1.5
m1 = 0.0803	1010.64 ± 0.34	1496.9 ± 1.4	–
m1 = 0.1	1013.53 ± 0.36	1499 ± 1.4	44.5 ± 1.6
m1 = 0.1248	1017.05 ± 0.38	1501.5 ± 1.4	–
m1 = 0.125	–	–	44.1 ± 1.5
m1 = 0.149	1020.45 ± 0.4	1503.8 ± 1.5	–
m1 = 0.15	–	–	44.6 ± 1.6
m1 = 0.1752	1023.98 ± 0.43	1506.3 ± 1.5	–

CN1CCN(CCCN2c3ccccc3Sc3ccc(C(F)(F)F)cc32)CC1.Cl.Cl [trifluoperazine dihydrochloride] + O
Conditions	mass density [kg/m3]	speed of sound [m/s]	surface tension liquid-gas [mN/m]
m1 = 0.003	–	–	58.1 ± 2
m1 = 0.004	–	–	55.1 ± 1.9
m1 = 0.005	–	–	51.4 ± 1.8
m1 = 0.006	–	–	51.1 ± 1.8
m1 = 0.007	–	–	49.6 ± 1.7
m1 = 0.0079	999.369 ± 0.27	1484.1 ± 1.2	–
m1 = 0.008	–	–	47.7 ± 1.6
m1 = 0.00895	999.513 ± 0.27	1484.3 ± 1.2	–
m1 = 0.009	–	–	47.7 ± 1.6
m1 = 0.01	–	–	46.5 ± 1.6
m1 = 0.011	999.803 ± 0.28	1484.7 ± 1.2	–
m1 = 0.01547	1000.45 ± 0.28	1485.5 ± 1.3	–
m1 = 0.02109	1001.24 ± 0.28	1486.4 ± 1.3	–
m1 = 0.025	–	–	46 ± 1.6
m1 = 0.0286	1002.31 ± 0.29	1487.8 ± 1.3	–
m1 = 0.03996	1003.91 ± 0.3	1489.8 ± 1.3	–
m1 = 0.0492	1005.18 ± 0.3	1491.3 ± 1.3	–
m1 = 0.05	–	–	46.5 ± 1.6
m1 = 0.06004	1006.67 ± 0.31	1493 ± 1.3	–
m1 = 0.075	–	–	45.9 ± 1.6
m1 = 0.07991	1009.39 ± 0.33	1496.2 ± 1.4	–
m1 = 0.09979	1012.03 ± 0.34	1498.3 ± 1.4	–
m1 = 0.1	–	–	46.6 ± 1.6
m1 = 0.1248	1015.25 ± 0.36	1500.6 ± 1.4	–
m1 = 0.125	–	–	46.5 ± 1.6
m1 = 0.1496	1018.45 ± 0.38	1502.9 ± 1.4	–
m1 = 0.15	–	–	45.9 ± 1.6
m1 = 0.1737	1021.45 ± 0.4	1505.1 ± 1.5	–
m1 = 0.1994	1024.63 ± 0.43	1507.3 ± 1.5	–
m1 = 0.2245	1027.65 ± 0.45	1509.5 ± 1.6	–
m1 = 0.2494	1030.56 ± 0.47	1511.7 ± 1.6	–
m1 = 0.2749	1033.52 ± 0.5	1513.6 ± 1.6	–
m1 = 0.2998	1036.3 ± 0.52	1515.8 ± 1.6	–
